Source: PubChem BioAssay AID248 (DTP/NCI, 2004)
Toxic doses and inconclusive results are not listed. Cut-off read from the data, not from the text of the source: active = T/C of 150% or more; inactive = T/C below 125%.

Test system: L1210 leukemia ip in BDF1 mice, survival T/C
Assay: NCI In Vivo Anticancer Drug Screen. Data for tumor model L1210 Leukemia (intraperitoneal) in B6D2F1 (BDF1) mice
Settings: endpoint: mean survival time, higher = longer survival
Procedure, shortened: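 Tumor cells were implanted, animals were treated, and survival was followed. The result divides the treated measurement by the vehicle-control measurement.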

[1] = dose: 75.0 mg/kg/injection, schedule: Q01DX001 (ip), vehicle: other
[2] = dose: 150.0 mg/kg/injection, schedule: Q01DX001 (ip), vehicle: other
[3] = dose: 100.0 mg/kg/injection, schedule: Q04DX003 (ip), vehicle: Klucel (hydroxypropylcellulose) (HPC)
[4] = dose: 200.0 mg/kg/injection, schedule: Q04DX003 (ip), vehicle: Klucel (hydroxypropylcellulose) (HPC)
[5] = dose: 400.0 mg/kg/injection, schedule: Q04DX003 (ip), vehicle: Klucel (hydroxypropylcellulose) (HPC)
[6] = dose: 100.0 mg/kg/injection, schedule: Q01DX001 (ip), vehicle: carboxymethylcellulose (CMC)
[7] = dose: 200.0 mg/kg/injection, schedule: Q01DX001 (ip), vehicle: carboxymethylcellulose (CMC)
[8] = dose: 100.0 mg/kg/injection, schedule: Q04DX002 (ip), vehicle: saline
[9] = dose: 200.0 mg/kg/injection, schedule: Q04DX002 (ip), vehicle: saline
[10] = dose: 400.0 mg/kg/injection, schedule: Q04DX002 (ip), vehicle: saline
[11] = dose: 100.0 mg/kg/injection, schedule: Q04DX003 (ip), vehicle: saline with Tween-80
[12] = dose: 200.0 mg/kg/injection, schedule: Q04DX003 (ip), vehicle: saline with Tween-80
[13] = dose: 100.0 mg/kg/injection, schedule: Q01DX001 (ip), vehicle: saline
[14] = dose: 200.0 mg/kg/injection, schedule: Q01DX001 (ip), vehicle: saline

Measured: T/C

CC1C(=O)CCC2(C)CCCCC12 (stereo not drawn)
inactive: [1] 103 % of control | [2] 101 % of control | dose: 300.0 mg/kg/injection, schedule: Q01DX001 (ip), vehicle: other 103 % of control

N#CC1(Cc2ccccc2)c2ccccc2-c2ccccc21
inactive: [3] 98 % of control | [4] 89 % of control | [5] 91 % of control

O=C(c1ccc([N+](=O)[O-])cc1)C1NC1c1ccc([N+](=O)[O-])cc1 (stereo not drawn)
inactive: dose: 50.0 mg/kg/injection, schedule: Q01DX001 (ip), vehicle: carboxymethylcellulose (CMC) 108 % of control | [6] 100 % of control | [7] 105 % of control | dose: 400.0 mg/kg/injection, schedule: Q01DX001 (ip), vehicle: carboxymethylcellulose (CMC) 97 % of control

CCCCCCCCCCCCCCCCCC[n+]1ccccc1
inactive: dose: 0.09 mg/kg/injection, schedule: Q01DX009 (ip), vehicle: saline with Tween-80 89 % of control | dose: 0.19 mg/kg/injection, schedule: Q01DX009 (ip), vehicle: saline with Tween-80 99 % of control | dose: 0.39 mg/kg/injection, schedule: Q01DX009 (ip), vehicle: saline with Tween-80 96 % of control

C/C(CN(C)C)=N\O
inactive: [8] 101 % of control | [9] 99 % of control | [10] 92 % of control

COC(=O)/C(C#N)=C\c1ccccc1
inactive: [11] 95 % of control | [12] 101 % of control

Cc1ccc(NC(=O)c2ccc(C(=O)Nc3ccc(C)cc3)cc2)cc1
inactive: dose: 56.0 mg/kg/injection, schedule: Q01DX Z (ip), vehicle: carboxymethylcellulose (CMC) 88 % of control | dose: 225.0 mg/kg/injection, schedule: Q01DX Z (ip), vehicle: carboxymethylcellulose (CMC) 92 % of control

CC(C#N)NC(=O)NC(C)C(N)=O (stereo not drawn)
inactive: [13] 107 % of control | [14] 107 % of control | dose: 400.0 mg/kg/injection, schedule: Q01DX001 (ip), vehicle: saline 97 % of control

CC1(C)OCC(C2OC(N)C(O)C2O)O1 (stereo not drawn)
inactive: [8] 94 % of control | [9] 97 % of control | [10] 102 % of control

Nc1ncnc(N)c1NC(=O)CCCc1ccccc1
inactive: [3] 86 % of control | [4] 92 % of control

CCCCC(CC)CNCCOC(=O)c1ccc(N)cc1 (stereo not drawn)
inactive: [1] 92 % of control | [2] 100 % of control

COc1ccc(CNCC(=O)OCc2ccccc2)cc1
inactive: dose: 50.0 mg/kg/injection, schedule: Q01DX009 (ip), vehicle: saline with Tween-80 91 % of control | dose: 100.0 mg/kg/injection, schedule: Q01DX009 (ip), vehicle: saline with Tween-80 100 % of control | [11] 102 % of control | [12] 101 % of control

CC1C(c2ccccc2)OCCN1C (stereo not drawn)
inactive: dose: 50.0 mg/kg/injection, schedule: Q04DX003 (ip), vehicle: saline 108 % of control | [13] 93 % of control | dose: 100.0 mg/kg/injection, schedule: Q04DX003 (ip), vehicle: saline 108 % of control | [14] 104 % of control | dose: 200.0 mg/kg/injection, schedule: Q04DX003 (ip), vehicle: saline 104 % of control

CCOC(=O)c1cc(C(=O)OCC)c(=O)oc1OCC
inactive: dose: 18.75 mg/kg/injection, schedule: Q01DX009 (ip), vehicle: acetone 105 % of control | dose: 37.5 mg/kg/injection, schedule: Q01DX009 (ip), vehicle: acetone 87 % of control | dose: 37.5 mg/kg/injection, schedule: Q04DX003 (ip), vehicle: saline 88 % of control | dose: 75.0 mg/kg/injection, schedule: Q01DX001 (ip), vehicle: saline 110 % of control | dose: 75.0 mg/kg/injection, schedule: Q01DX009 (ip), vehicle: acetone 87 % of control | dose: 75.0 mg/kg/injection, schedule: Q04DX003 (ip), vehicle: saline 90 % of control | dose: 150.0 mg/kg/injection, schedule: Q01DX001 (ip), vehicle: saline 97 % of control | dose: 150.0 mg/kg/injection, schedule: Q04DX003 (ip), vehicle: saline 93 % of control

CN1C2CCCC1CC(=O)NC2 (stereo not drawn)
inactive: dose: 15.0 mg/kg/injection, schedule: Q01DX001 (ip), vehicle: saline 107 % of control | dose: 15.0 mg/kg/injection, schedule: Q04DX002 (ip), vehicle: saline 101 % of control | dose: 30.0 mg/kg/injection, schedule: Q01DX001 (ip), vehicle: saline 106 % of control | dose: 30.0 mg/kg/injection, schedule: Q04DX002 (ip), vehicle: saline 101 % of control | dose: 60.0 mg/kg/injection, schedule: Q04DX002 (ip), vehicle: saline 108 % of control

Cc1cc(O)c2c(c1)C(=O)C13C(=C2O)C(=O)C2C(O)C1C1C(O)C3C(=O)C3=C(O)c4c(O)cc(C)cc4C(=O)C321 (stereo not drawn)
inactive: dose: 20.0 mg/kg/injection, schedule: Q04DX003 (ip), vehicle: saline with Tween-80 107 % of control | dose: 40.0 mg/kg/injection, schedule: Q04DX003 (ip), vehicle: saline with Tween-80 100 % of control | dose: 80.0 mg/kg/injection, schedule: Q04DX003 (ip), vehicle: saline with Tween-80 102 % of control

Cc1ccc(S(=O)(=O)Oc2ccccc2C)cc1
inactive: [3] 97 % of control | [4] 103 % of control | [5] 103 % of control

CC1(C)N=C(N)N=C(N)N1c1cccc(CCCCc2ccc(Cl)c(S(=O)(=O)F)c2)c1
inactive: dose: 7.0 mg/kg/injection, schedule: Q04DX003 (ip), vehicle: saline 97 % of control | dose: 12.5 mg/kg/injection, schedule: Q01DX009 (ip), vehicle: saline sonified 91 % of control | dose: 12.5 mg/kg/injection, schedule: Q04DX003 (ip), vehicle: saline sonified 100 % of control | dose: 14.0 mg/kg/injection, schedule: Q04DX003 (ip), vehicle: saline 95 % of control | dose: 25.0 mg/kg/injection, schedule: Q04DX003 (ip), vehicle: saline sonified 102 % of control | dose: 28.0 mg/kg/injection, schedule: Q04DX003 (ip), vehicle: saline 88 % of control | dose: 50.0 mg/kg/injection, schedule: Q04DX003 (ip), vehicle: saline sonified 96 % of control | dose: 56.0 mg/kg/injection, schedule: Q04DX003 (ip), vehicle: saline 93 % of control

CCN(CC)CC[N-]CCN(CC)CC.[Cl][Pt]
inactive: [13] 97 % of control

C[n+]1ccc2cc(N)c3c4ccccc4sc3c2c1
inactive: dose: 1.56 mg/kg/injection, schedule: Q01DX009 (ip), vehicle: saline with Tween-80 110 % of control | dose: 3.12 mg/kg/injection, schedule: Q01DX009 (ip), vehicle: saline with Tween-80 100 % of control | dose: 6.25 mg/kg/injection, schedule: Q01DX009 (ip), vehicle: saline with Tween-80 105 % of control | dose: 12.5 mg/kg/injection, schedule: Q04DX003 (ip), vehicle: saline with Tween-80 105 % of control | dose: 25.0 mg/kg/injection, schedule: Q04DX003 (ip), vehicle: saline with Tween-80 105 % of control | dose: 50.0 mg/kg/injection, schedule: Q04DX003 (ip), vehicle: saline with Tween-80 115 % of control

O=C1OCC/C1=C\C1CC=CCC1 (stereo not drawn)
inactive: dose: 67.0 mg/kg/injection, schedule: Q04DX003 (ip), vehicle: saline with Tween-80 96 % of control | [11] 88 % of control | dose: 150.0 mg/kg/injection, schedule: Q04DX003 (ip), vehicle: saline with Tween-80 96 % of control

COc1cc2c(cc1OC)C(Cc1ccc(OC(=O)O)cc1)=NCC2
inactive: [6] 102 % of control | [7] 102 % of control
